This note sets out measurements from paper PMC11842588, “A first-in-class selective inhibitor of ERK1/2 and ERK5 overcomes drug resistance with a single-molecule strategy” (Signal Transduction and Targeted Therapy, 2025).

SMILES strings stand for the structures.

In one experiment the target is ERK2 (Homo sapiens, UniProt P28482). Briefly: ADP-Glo kinase assay. The class given is biochemical. On the procedure:
(§1) The full-length human ERK1 or ERK2 with His-tag was cloned into a pET28a vector. hERK1/2 were expressed in Escherichia coli BL21(DE3), and then were purified using sequential Ni-NTA and Superdex 200 column steps. The SEC purified sample was then concentrated to 10 mg/ml and stored at −80 °C with buffer containing 20 mM HEPES pH 7.5, 150 mM NaCl. ERK5 (residues 48–395) containing His and GST tags was cloned into the pFastBac vector, and the recombinant plasmid was extracted. The recombinant plasmid was transformed into the DH10bac strain, and monoclonal was selected for culture. The recombinant Bacmid was then extracted according to the instructions of the Baculovirus Shuttle Vector Bacmid Mini Preparation Kit (Beyotime) and validated by PCR. 1 × 10^6/well Sf9 cells were counted for transfection and then amplified to obtain P3 ERK5 recombinant baculovirus. It was added to 2 × 10^6/mL Sf9 cells and incubated at 27 °C for 72 h on a shaker to express ERK5. Cells were lysed and supernatant was collected on a Ni-NTA for purification, and a 250 mM imidazole eluate was collected. Next, digestion by TEV protease was performed overnight while dialysis was performed in approximately 1000 mL of imidazole-free buffer. The digested ERK5 protein was sequentially purified on the Ni-NTA and GST-tag Purification Resin, followed by size exclusion chromatography on a Superdex 75 column. ERK5 protein was collected and concentrated to 12 mg/ml and stored at −80 °C in buffer containing 50 mM HEPES pH 8.0, 200 mM NaCl, 10% (v/v) glycerol.
(§2) ERK1/2/5 kinase activity assay was conducted using ADP-Glo™ Kinase Assay. 2× ATP solution and 2× kinase & Metal solution were prepared using assay buffer were prepared using assay buffer containing 50 mM Hepes pH 7.5, 10 mM MgCl2; 0.01% Brij35, 1 mM EGTA, 2 mM DTT. Transfer 40 nL compounds to 384 assay plate. Add 2 μL of 2× kinase & Metal solution were mixed and incubated in a 384-assay plate for 10 min at 25 °C. 2 μL of 2×ATP solution was added and incubated at 25 °C for 60 min. And then, each well was supplemented with 4 µL of ADP-Glo^TM reagent and incubated at 25 °C for 40 min. Subsequently, 8 µL of Kinase Detection Reagent was added and incubated at 25 °C for 40 min. Finally, the luminescence signals were recorded. The IC50 values were calculated using GraphPad Prism 9.5 software.
On the technique in general: ADP-Glo first removes unused ATP, then detects ADP through luciferase.

A further experiment deals with ERK1 (Homo sapiens, UniProt P27361). Briefly: ADP-Glo kinase assay. The class given is biochemical. The procedure: as §1, §2
ERK1, sequence (P27361 whole entry): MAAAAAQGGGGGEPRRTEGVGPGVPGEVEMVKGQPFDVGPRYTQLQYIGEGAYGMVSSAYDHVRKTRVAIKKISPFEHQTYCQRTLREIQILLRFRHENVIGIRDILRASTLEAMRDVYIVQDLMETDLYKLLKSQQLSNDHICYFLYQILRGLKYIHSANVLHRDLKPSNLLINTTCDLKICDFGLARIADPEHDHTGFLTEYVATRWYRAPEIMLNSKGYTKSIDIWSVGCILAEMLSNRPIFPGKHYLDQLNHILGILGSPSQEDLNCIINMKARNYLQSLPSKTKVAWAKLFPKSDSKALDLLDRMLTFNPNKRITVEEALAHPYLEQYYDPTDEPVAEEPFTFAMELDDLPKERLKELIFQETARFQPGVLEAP
Another experiment deals with ERK5 (Homo sapiens, UniProt Q13164). Kind of experiment: ADP-Glo kinase assay. The class given is biochemical. The procedure:
as §1, §2

The subject of a further experiment is MDA-MB-468 cells. Briefly: MTT cell viability assay. To be noted: 10 μM. The class given is cell-based. On the procedure:
(§3) MDA-MB-468 and MDA-MB-436 cells were cultured in Leibovitz’s L-15 medium supplemented with 10% fetal bovine serum. […] All of the cells were cultured at 37 °C in a humidified atmosphere containing 5% CO2.
(§4) Cancer cells were seeded in a density in 96-well plates (2 × 10^3 cells per well). After incubation for 24 h, cancer cells were treated with compounds (0–20 μM) for 72 h.

Another experiment deals with MDA-MB-231 cells. Briefly: MTT cell viability assay. The class given is cell-based. To be noted: 10 μM. On the procedure:
as §3, §4
In general terms: Tetrazolium assays rely on reduction of a dye to a coloured formazan, in cell work by metabolically active cells.

ERK5, sequence (Q13164 whole entry): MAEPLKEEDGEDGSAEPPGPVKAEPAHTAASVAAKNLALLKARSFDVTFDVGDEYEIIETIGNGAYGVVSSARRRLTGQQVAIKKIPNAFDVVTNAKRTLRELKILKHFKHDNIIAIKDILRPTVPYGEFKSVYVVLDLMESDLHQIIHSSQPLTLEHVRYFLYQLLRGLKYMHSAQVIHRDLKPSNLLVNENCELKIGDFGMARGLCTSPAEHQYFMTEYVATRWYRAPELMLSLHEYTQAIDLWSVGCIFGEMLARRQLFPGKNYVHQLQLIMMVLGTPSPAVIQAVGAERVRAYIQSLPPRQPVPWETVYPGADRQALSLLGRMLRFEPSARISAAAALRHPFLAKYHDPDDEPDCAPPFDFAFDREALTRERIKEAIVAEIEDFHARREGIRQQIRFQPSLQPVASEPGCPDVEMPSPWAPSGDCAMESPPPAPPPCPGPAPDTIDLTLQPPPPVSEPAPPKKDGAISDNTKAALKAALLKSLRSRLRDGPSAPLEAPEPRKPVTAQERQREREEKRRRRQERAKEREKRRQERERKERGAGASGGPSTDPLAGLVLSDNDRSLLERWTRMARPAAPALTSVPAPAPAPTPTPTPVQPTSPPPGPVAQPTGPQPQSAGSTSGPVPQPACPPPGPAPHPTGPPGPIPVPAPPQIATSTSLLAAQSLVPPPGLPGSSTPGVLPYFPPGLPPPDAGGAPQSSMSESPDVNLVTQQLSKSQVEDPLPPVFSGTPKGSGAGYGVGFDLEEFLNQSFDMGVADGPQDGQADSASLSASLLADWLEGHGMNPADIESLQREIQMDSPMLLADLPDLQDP
ERK2, sequence (P28482 whole entry, the tested form may be a part): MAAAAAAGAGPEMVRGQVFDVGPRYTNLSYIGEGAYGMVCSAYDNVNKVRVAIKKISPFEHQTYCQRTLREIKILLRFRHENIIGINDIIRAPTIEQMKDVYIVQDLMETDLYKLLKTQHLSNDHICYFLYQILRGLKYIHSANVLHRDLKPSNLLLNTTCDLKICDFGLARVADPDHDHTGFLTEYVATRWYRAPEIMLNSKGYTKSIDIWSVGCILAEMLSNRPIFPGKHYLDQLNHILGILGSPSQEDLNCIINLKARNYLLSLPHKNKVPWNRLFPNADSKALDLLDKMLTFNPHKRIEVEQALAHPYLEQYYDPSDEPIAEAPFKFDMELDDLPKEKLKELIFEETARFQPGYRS

Turning to `CN(C)Cc1cccc(Nc2ncc(Cl)c(-c3csc(C(=O)NN4CCN(C)CC4)c3)n2)c1` [18n], the “Enzyme inhibitory activity (500 nM, %) ERK2” value at ERK2 amounted to 91.03 ± 1.23%. Also, the “Enzyme inhibitory activity (500 nM, %) ERK1” value on ERK1 stood at 90.27 ± 1.78%. For the same molecule, the “Enzyme inhibitory activity (500 nM, %) ERK5” value on ERK5 is listed as 79.74 ± 0.07%. Moreover, the “Anti-proliferative activity (10 μM, %) MDA-MB-468” value with MDA-MB-468 cells was determined as 86.37 ± 0.43%. In the experiment on MDA-MB-231 cells, the “Anti-proliferative activity (10 μM, %) MDA-MB-231” value is 54.82 ± 1.21%.
As for `Cn1nccc1Nc1ncc(Cl)c(-c2csc(C(=O)NN3CCOCC3)c2)n1` [6e], the “Enzyme inhibitory activity (500 nM, %) ERK2” value at ERK2 turned out to be 99.00 ± 0.56%. For the same molecule, the “Enzyme inhibitory activity (500 nM, %) ERK1” value at ERK1 came to 97.82 ± 0.43%. The “Enzyme inhibitory activity (500 nM, %) ERK5” value on ERK5 turned out to be 70.61 ± 0.98%. Moreover, in the experiment with MDA-MB-468 cells, the “Anti-proliferative activity (10 μM, %) MDA-MB-468” value is on record as 0.70 ± 0.45%. For the same molecule, in the experiment with MDA-MB-231 cells, the “Anti-proliferative activity (10 μM, %) MDA-MB-231” value was found to be 11.49 ± 1.48%.
Taken in the same sequence, the figures for `CSc1ccc(NC(=O)c2cc(-c3nc(Nc4ccnn4C)ncc3Cl)cs2)cc1` [6ac] were 97.67 ± 0.90%, 95.98 ± 1.02%, 69.90 ± 2.56%, 18.49 ± 0.23% and 22.57 ± 1.11%.
The like results for `CN(C)Cc1cccc(Nc2ncc(Cl)c(-c3csc(C(=O)Nc4ccncn4)c3)n2)c1` [18i] were, in that order, -1.29 ± 0.02%, 2.13 ± 1.56%, 71.14 ± 0.43%, 30.29 ± 0.83% and 41.35 ± 1.20%.
Turning to `COc1ccc(NC(=O)c2cc(-c3nc(Nc4ccccc4)ncc3Cl)cs2)cc1` [9e], at ERK2, the “Enzyme inhibitory activity (500 nM, %) ERK2” value is reported as 76.45 ± 0.01%. Besides, at ERK1, the “Enzyme inhibitory activity (500 nM, %) ERK1” value turned out to be 77.32 ± 2.34%. For the same molecule, at ERK5, the “Enzyme inhibitory activity (500 nM, %) ERK5” value is listed as 45.32 ± 0.09%. Also, the “Anti-proliferative activity (10 μM, %) MDA-MB-468” value in the experiment on MDA-MB-468 cells was 25.10 ± 1.53%. Also, in the experiment on MDA-MB-231 cells, the “Anti-proliferative activity (10 μM, %) MDA-MB-231” value is recorded as 23.33 ± 0.56%.
The like results for `Cn1nccc1Nc1ncc(Cl)c(-c2csc(C(=O)Nc3ccc(C(F)(F)F)cc3)c2)n1` [6y] were, in that order, 51.08 ±2.31%, 50.78 ± 0.89%, 23.21 ± 3.45%, 9.83 ± 0.93% and 8.87 ± 1.11%.
The like results for `COc1ccc(NC(=O)c2cc(-c3nc(Nc4c(C)nn(C)c4C)ncc3Cl)cs2)cc1` [9d, 4-(5-chloro-2-((1,3,5-trimethyl-1H-pyrazol-4-yl)amino)pyrimidin-4-yl)-N-(4-methoxyphenyl)thio-phene-2-carboxamide] were, in that order, 43.22 ± 0.23%, 45.29 ± 1.30%, 23.12 ± 3.21%, 24.33 ± 0.84% and 7.54 ± 1.23%.
As for `COc1cc(N2CCN(C)CC2)ccc1NC(=O)c1cc(-c2nc(Nc3ccnn3C)ncc2Cl)cs1` [H1], the inhibition at 0.5 µM at ERK2 (read-out: Enzyme inhibitory activity (500 nM, %) ERK2) stood at 64.2%; on ERK1 (read-out: Enzyme inhibitory activity (500 nM, %) ERK1), 62.5%; on ERK5 (read-out: Enzyme inhibitory activity (500 nM, %) ERK5), 59.5%.
Consider `COc1ccc(NC(=O)c2cc(-c3nc(Nc4ccnn4C)ncc3Cl)cs2)cc1OC` [6ag, 4-(5-chloro-2-((1-methyl-1H-pyrazol-5-yl)amino)pyri-midin-4-yl)-N-(3,4-dimethoxyphenyl)thiophene-2-carboxamide], for which, on ERK2, the “Enzyme inhibitory activity (500 nM, %) ERK2” value amounted to 94.53 ± 1.21%. Besides, the “Enzyme inhibitory activity (500 nM, %) ERK1” value on ERK1 came out at 92.13 ± 1.04%. Moreover, the “Enzyme inhibitory activity (500 nM, %) ERK5” value on ERK5 is given as 65.13 ± 0.90%. Also, the “Anti-proliferative activity (10 μM, %) MDA-MB-468” value with MDA-MB-468 cells was found to be 25.61 ± 0.45%. Further, the “Anti-proliferative activity (10 μM, %) MDA-MB-231” value with MDA-MB-231 cells amounted to 33.67 ± 0.08%.
Turning to `CN1CCN(C(=O)c2cc(-c3nc(Nc4ccnn4C)ncc3Cl)cs2)CC1` [6b], the “Enzyme inhibitory activity (500 nM, %) ERK2” value at ERK2 is 39.03 ± 2.13%. In addition, the “Enzyme inhibitory activity (500 nM, %) ERK1” value at ERK1 stood at 40.45 ± 1.23%. For the same molecule, the “Enzyme inhibitory activity (500 nM, %) ERK5” value at ERK5 is recorded as 28.02 ± 1.34%. In the experiment on MDA-MB-468 cells, the “Anti-proliferative activity (10 μM, %) MDA-MB-468” value worked out at 25.81 ± 2.43%. The “Anti-proliferative activity (10 μM, %) MDA-MB-231” value in the experiment on MDA-MB-231 cells was determined as 3.15 ± 1.22%.
As to `CN(C)Cc1cccc(Nc2ncc(Cl)c(-c3csc(C(=O)Nc4cccc(N(C)C)c4)c3)n2)c1` [18d], the “Enzyme inhibitory activity (500 nM, %) ERK2” value on ERK2 worked out at 23.97 ± 0.90%. For the same molecule, on ERK5, the “Enzyme inhibitory activity (500 nM, %) ERK5” value is listed as 78.85 ± 2.67%. In addition, the “Anti-proliferative activity (10 μM, %) MDA-MB-468” value in the experiment on MDA-MB-468 cells is on record as 50.45 ± 2.12%. Further, the “Anti-proliferative activity (10 μM, %) MDA-MB-231” value in the experiment with MDA-MB-231 cells is listed as 85.64 ± 1.02%.
As for `Cn1nccc1Nc1ncc(Cl)c(-c2csc(C(=O)Nc3cccc(Cl)c3)c2)n1` [6k], at ERK2, the “Enzyme inhibitory activity (500 nM, %) ERK2” value turned out to be 57.85 ± 0.88%. Further, the “Enzyme inhibitory activity (500 nM, %) ERK1” value at ERK1 is given as 59.39 ± 3.21%. Moreover, the “Enzyme inhibitory activity (500 nM, %) ERK5” value on ERK5 was found to be 36.99 ± 0.32%. Besides, the “Anti-proliferative activity (10 μM, %) MDA-MB-468” value in the experiment with MDA-MB-468 cells was 23.41 ± 0.48%. In the experiment with MDA-MB-231 cells, the “Anti-proliferative activity (10 μM, %) MDA-MB-231” value was 39.12 ± 1.23%.
The like results for `COc1ccc(NC(=O)c2cc(-c3nc(Nc4cccc(N(C)C)c4)ncc3Cl)cs2)cc1` [9h] were, in that order, 78.90 ± 2.31%, 77.02 ± 3.21%, 65.54 ± 0.88%, 20.15 ± 0.77% and 11.21 ± 0.47%.
Taken in the same sequence, the figures for `Cn1nccc1Nc1ncc(Cl)c(-c2csc(C(=O)Nc3cccc(Br)c3)c2)n1` [6l] were 46.65 ± 0.32%, 47.12 ± 9.23%, 32.34 ± 0.89%, 23.35 ± 2.37% and 33.90 ± 1.22%.
With `COc1ccc(NC(=O)c2cc(-c3nc(Nc4ccn(C)n4)ncc3Cl)cs2)cc1` [9a], the “Enzyme inhibitory activity (500 nM, %) ERK2” value at ERK2 stood at 45.57 ± 0.34%. Also, on ERK1, the “Enzyme inhibitory activity (500 nM, %) ERK1” value is given as 41.09 ± 1.05%. Besides, the “Enzyme inhibitory activity (500 nM, %) ERK5” value on ERK5 worked out at 21.12 ± 2.34%. In addition, the “Anti-proliferative activity (10 μM, %) MDA-MB-468” value with MDA-MB-468 cells worked out at 8.70 ± 3.21%. Besides, the “Anti-proliferative activity (10 μM, %) MDA-MB-231” value with MDA-MB-231 cells came out at 1.23 ± 1.20%.
For `Cc1cccc(NC(=O)c2cc(-c3nc(Nc4ccnn4C)ncc3Cl)cs2)c1` [6q], at ERK2, the “Enzyme inhibitory activity (500 nM, %) ERK2” value turned out to be 82.11 ±0.61%. In addition, the “Enzyme inhibitory activity (500 nM, %) ERK1” value at ERK1 amounted to 80.23 ± 0.68%. For the same molecule, the “Enzyme inhibitory activity (500 nM, %) ERK5” value at ERK5 was 65.90 ± 3.12%. For the same molecule, the “Anti-proliferative activity (10 μM, %) MDA-MB-468” value with MDA-MB-468 cells is given as 33.20± 0.44%. Further, the “Anti-proliferative activity (10 μM, %) MDA-MB-231” value in the experiment on MDA-MB-231 cells worked out at 29.43 ± 3.25%.
The like results for `CN(C)Cc1cccc(Nc2ncc(Cl)c(-c3csc(C(=O)Nc4ccnn4C)c3)n2)c1` [18k] were, in that order, 43.61 ± 1.45%, 45.23 ± 2.12%, 86.64 ± 0.89%, -3.93 ± 1.21% and 39.77 ± 0.31%.
As for `Cn1nccc1Nc1ncc(Cl)c(-c2csc(C(=O)Nc3ccccc3)c2)n1` [6i], the “Anti-proliferative activity (10 μM, %) MDA-MB-468” value in the experiment on MDA-MB-468 cells is -12.07 ± 2.31%. Moreover, the “Anti-proliferative activity (10 μM, %) MDA-MB-231” value in the experiment with MDA-MB-231 cells was determined as 5.65 ± 0.22%.
With `Cn1nccc1Nc1ncc(Cl)c(-c2csc(C(=O)Nc3cccc(F)c3)c2)n1` [6j], the “Anti-proliferative activity (10 μM, %) MDA-MB-468” value with MDA-MB-468 cells was 10.11 ± 0.76%. The “Anti-proliferative activity (10 μM, %) MDA-MB-231” value in the experiment on MDA-MB-231 cells is given as 25.73 ± 0.57%.
Taken in the same sequence, the figures for `Cn1nccc1Nc1ncc(Cl)c(-c2csc(C(=O)NCc3cnccn3)c2)n1` [6h] were 7.43 ± 3.45% and 23.65 ± 1.27%.
